According to paper PMC8989888, “Development of optimized drug-like small molecule inhibitors of the SARS-CoV-2 3CL protease for treatment of COVID-19” (Nature Communications, 2022):
Several values for one entry are separate records, joined by “and”; a condition that tells them apart may be missing. Identical values can stand only once.

Test system: SARS-CoV-2
Experiment: microbe, parasite or virus in culture
Assay type: cell-based

Compound	inhibition of SARS-CoV-2 (Figure S17A dose-response, replicate values)
CC(C)C[C@H](NC(=O)OCc1cccc(Cl)c1)C(=O)N[C@@H](C[C@@H]1CCNC1=O)C(O)S(=O)(=O)O (stereo partly shown) [EB46]	0 (10×) and 100 (6×) and 37.5 (2×) and 50 and 12.5 (2×)
O=C(N[C@@H](CC1CCCCC1)C(=O)N[C@@H](C[C@@H]1CCNC1=O)C(O)S(=O)(=O)O)OCc1ccccc1 (stereo partly shown) [SL-4-241]	0 (14×) and 100 (2×) and 81.25 and 25 (2×) and 12.5 (2×)
O=C(N[C@@H](CC1CCCCC1)C(=O)N[C@@H](C[C@@H]1CCNC1=O)C(O)S(=O)(=O)O)OCc1cccc(Cl)c1 (stereo partly shown) [EB48]	0 (11×) and 68.75 and 75 and 93.75 and 25 (3×) and 50 and 37.5 and 12.5 (2×)
CC(C)C[C@H](NC(=O)OCc1cccc2ccccc12)C(=O)N[C@@H](C[C@@H]1CCNC1=O)C(O)S(=O)(=O)O (stereo partly shown) [EB55]	0 (10×) and 100 (4×) and 93.75 (2×) and 12.5 (5×)
CC(C)CC(NC(=O)OCc1ccccc1)C(=O)NC(CC1CCNC1=O)C(O)S(=O)(=O)O (stereo not shown) [GC376, reference compound]	0 (14×) and 87.5 and 93.75 and 100 and 37.5 and 62.5 and 68.75 and 12.5
CC(C)C[C@H](NC(=O)OCc1ccc2ccccc2c1)C(=O)N[C@@H](C[C@@H]1CCNC1=O)C(O)S(=O)(=O)O (stereo partly shown) [EB56]	0 (5×) and 12.5 (8×) and 93.75 (3×) and 87.5 (3×) and 50 and 25
CC(C)C[C@H](NC(=O)OCc1ccccc1Cl)C(=O)N[C@@H](C[C@@H]1CCNC1=O)C(O)S(=O)(=O)O (stereo partly shown) [EB54]	0 (6×) and 100 (6×) and 50 (3×) and 12.5 (4×) and 25 (2×)
